Data set [1] in a line: Oxidation / redox potential of trimers and EDOT monomer. The data set is classed as physicochemical.
In data set [2] the test system is HLF-1. Put plainly: MTT cell viability assay (limiting-dilution toxicity). The data set is classed as cell-based, human. Particulars: 1 day exposure, up to 1 mg mL^−1. The method, then: The MTT cell viability assay was conducted to determine in vitro toxicity of A5, ETE-S and ETE-PC. Briefly, HLF-1 (2×10^4 cells well-1) were plated in a 96-well flat-bottom microplate and grown for 24 h. Cells were treated with A5, ETE-S, or ETE-PC (0-1000 μg ml^−1) for 24 h. Post-treatment, 200 μL of MTT (0.5 mg mL^−1) was added into each well and incubated at 37° C. for 4 h. After incubation, 200 μL of isopropanol was added to dissolve formazan crystals. The optical density of formazan solution, as a measure of live cells, was obtained using a microplate reader at 570 nm (Spark Cyto, Tecan). The formazan signal (live cell count) was normalized to the control samples not exposed to A5 or ETE-Rs. 3 biological and 3 technical replicates were used for each setting. Each well contained up to 200 μg of our compound (1 mg mL^−1, 200 μL) which can be compared to a typical in vivo injection of 400 ng (40 mg mL^−1, 10 nL).
For orientation: Tetrazolium dyes change colour on reduction, which living cells bring about.

The subject of data set [3] is normal human lung fibroblast (HLF-1) cells. Put plainly: Calcein-AM cytotoxicity assessment in normal lung fibroblast. To be noted: 24 hrs. The data set is classed as cell-based. As to the method:
Study of the in vitro toxicity of ETE-PC in normal human lung fibroblast (HLF-1) cells. Briefly, HLF-1 cells were seeded in 96 well plate at a density of 2×10^4 cell per well and grown for 24 hrs. Later cells were treated with various concentrations of ETE-PC (5-1000 μg/ml) for 24 hrs. Post treatment, 200 μl live cell staining dye calcein-AM (Thermo Fisher, Invitrogen, Cat no. C3100MP) (2 μM in PR free DMEM) was added to wells and incubated for 30 min followed by examination of live cells using fluorescence cell imaging (Spark Cyto cell imager, Tecan).

In data set [4] the target is T1, horseradish peroxidase (HRP) (Armoracia rusticana, UniProt P00433).
T1 construct: purchased Merck, Sigma Aldrich P8375-25KU
T1 sequence (P00433 31-338 limits assumed): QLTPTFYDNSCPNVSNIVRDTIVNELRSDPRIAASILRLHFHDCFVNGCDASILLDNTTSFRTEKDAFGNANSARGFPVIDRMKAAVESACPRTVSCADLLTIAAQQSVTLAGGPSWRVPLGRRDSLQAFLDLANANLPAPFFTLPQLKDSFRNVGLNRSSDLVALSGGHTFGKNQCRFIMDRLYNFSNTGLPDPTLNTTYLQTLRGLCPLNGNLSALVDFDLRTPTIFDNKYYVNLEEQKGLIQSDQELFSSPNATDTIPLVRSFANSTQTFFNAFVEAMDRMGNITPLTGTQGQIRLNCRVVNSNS
Put plainly: Enzymatic polymerization of ETE-PC with HRP and H2O2. The data set is classed as biochemical. To be noted: ETE-PC 500 μg/ml, HRP 5 U/ml. As to the method: A solution of ETE-PC (500 μg/ml) was prepared in DPBS (Thermo Fischer, Gibco, Cat no. 14190-250) and mixed with different concentrations of hydrogen peroxide (H2O2) (0.001-0.01%) and horseradish peroxidase (HRP) (Merck, Sigma Aldrich, P8375-25KU) (5 U/ml in DPBS) was added. The polymerization was examined by the change of colour of the ETE-PC solution from slightly yellow to black and taking absorbance at 350 nm and 780 nm to detect polymerized and unpolymerized ETE-PC. The absorbance maxima of polymerized and unpolymerized ETE-PC were determined by a wavelength scan using UV-Vis spectrophotometry by Spark Cyto (Tecan) multi-mode plate reader.

The compound `c1scc2c1OCCO2` [EDOT, 3,4-ethylenedioxythiophene] yielded an oxidation potential in data set [1] of 1.2 V.
With `C[N+](C)(C)CCOP(=O)([O-])OCCc1cc(-c2scc3c2OCCO3)sc1-c1scc2c1OCCO2` [ETE-PC], the cell toxicity entry in data set [2] is recorded as “neither A5 nor ETE-PC showed cell toxicity”. In addition, the “morphology in phase contrast images” value in data set [3] (5-1000 μg/ml) is “No detrimental change in morphology of HLF-1 cells was observed”. For the same compound, the “calcein-AM fluorescence vs control” value in data set [3] (even at 1000 μg/ml) is given as “no change the calcein-AM fluorescence”. Besides, in data set [4], the “H2O2 concentration at which polymerization by HRP got saturated” value was 0.002% and the “concentration of H2O2 required for HRP mediated polymerization” value is listed as 0.001%.
Turning to `O=S(=O)(O)CCCCOCCc1cc(-c2scc3c2OCCO3)sc1-c1scc2c1OCCO2` [ETE-S, sodium 4-(2-(2,5-bis(2,3-dihydrothieno[3,4-b][1,4]dioxin-5-yl)thiophene-3-yl)ethoxy)butane-1-sulfonate], the cell toxicity entry in data set [2] is on record as “some toxicity at high concentrations”.
